Assay results taken from ChEMBL document CHEMBL3044672, “N9- and N7-(Chloromethyl Phenymethyl)Chloropurine Derivatives from , '-Dichloroxylenes: Synthesis and Anticancer Activity” (2005).

How the values were obtained:
Type in all cases: functional
MCF7 = test: Cytotoxicity against Homo sapiens (human) MCF7 cells after 48 hr by sulforhodamine B assay; settings: MCF7, 48 h
OVCAR-8 = test: Cytotoxicity against Homo sapiens (human) OVCAR8 cells after 48 hr by sulforhodamine B assay; settings: OVCAR-8, 48 h
HOP-62 = test: Cytotoxicity against Homo sapiens (human) HOP62 cells after 48 hr by sulforhodamine B assay; settings: HOP-62, 48 h; for CC50: read-out: LC50 (the source's name)
SF-268 [1] = test: Cytotoxicity against Homo sapiens (human) SF268 cells assessed as cell growth at 10^-4 M after 48 hr by […] assay; settings: SF-268, 48 h, read-out: Activity
EKVX = test: Cytotoxicity against Homo sapiens (human) EKVX cells after 48 hr by sulforhodamine B assay; settings: for CC50: read-out: LC50 (the source's name)
RPMI-8226 = test: Cytotoxicity against Homo sapiens (human) RPMI8226 cells after 48 hr by sulforhodamine B assay; settings: RPMI-8226, 48 h; for CC50: read-out: LC50 (the source's name)
K562 = test: Cytotoxicity against Homo sapiens (human) K562 cells after 48 hr by sulforhodamine B assay; settings: K562, 48 h; for CC50: read-out: LC50 (the source's name)
NCI-H460 = test: Cytotoxicity against Homo sapiens (human) NCI-H460 cells assessed as cell growth at 10^-4 M after 48 hr by Alamar blue assay; settings: NCI-H460, 48 h, read-out: Activity
MDA-MB-231 = test: Cytotoxicity against Homo sapiens (human) MDA-MB-231 cells after 48 hr by sulforhodamine B assay; settings: MDA-MB-231, 48 h
SK-MEL-5 = test: Cytotoxicity against Homo sapiens (human) SK-MEL-5 cells after 48 hr by sulforhodamine B assay; settings: SK-MEL-5, 48 h
SF-268 [2] = test: Cytotoxicity against Homo sapiens (human) SF268 cells after 48 hr by sulforhodamine B assay; settings: SF-268, 48 h; for CC50: read-out: LC50 (the source's name)
LOX IMVI = test: Cytotoxicity against Homo sapiens (human) LOXIMVI cells after 48 hr by sulforhodamine B assay
SK-OV-3 = test: Cytotoxicity against Homo sapiens (human) SKOV3 cells after 48 hr by sulforhodamine B assay; settings: SK-OV-3, 48 h
BT-549 = test: Cytotoxicity against Homo sapiens (human) BT549 cells after 48 hr by sulforhodamine B assay; settings: BT-549, 48 h
UACC-62 = test: Cytotoxicity against Homo sapiens (human) UACC62 cells after 48 hr by sulforhodamine B assay; settings: UACC-62, 48 h
COLO 205 = test: Cytotoxicity against Homo sapiens (human) COLO205 cells after 48 hr by sulforhodamine B assay; settings: COLO 205, 48 h; for CC50: read-out: LC50 (the source's name)
SNB-19 = test: Cytotoxicity against Homo sapiens (human) SNB19 cells after 48 hr by sulforhodamine B assay; settings: SNB-19, 48 h
NCI-H23 = test: Cytotoxicity against Homo sapiens (human) NCI-H23 cells after 48 hr by sulforhodamine B assay; settings: NCI-H23, 48 h; for CC50: read-out: LC50 (the source's name)
KM12 = test: Cytotoxicity against Homo sapiens (human) KM12 cells after 48 hr by sulforhodamine B assay; settings: KM12, 48 h; for CC50: read-out: LC50 (the source's name)
HT-29 = test: Cytotoxicity against Homo sapiens (human) HT-29 cells after 48 hr by sulforhodamine B assay; settings: HT-29, 48 h; for CC50: read-out: LC50 (the source's name)
OVCAR-4 = test: Cytotoxicity against Homo sapiens (human) OVCAR4 cells after 48 hr by sulforhodamine B assay; settings: OVCAR-4, 48 h
PC-3 = test: Cytotoxicity against Homo sapiens (human) PC3 cells after 48 hr by sulforhodamine B assay; settings: PC-3, 48 h
NCI-H522 = test: Cytotoxicity against Homo sapiens (human) NCI-H522 cells after 48 hr by sulforhodamine B assay; settings: NCI-H522, 48 h; for CC50: read-out: LC50 (the source's name)
SN12C = test: Cytotoxicity against Homo sapiens (human) SN12C cells after 48 hr by sulforhodamine B assay
SF-539 = test: Cytotoxicity against Homo sapiens (human) SF539 cells after 48 hr by sulforhodamine B assay; settings: SF-539, 48 h
SNB-75 = test: Cytotoxicity against Homo sapiens (human) SNB75 cells after 48 hr by sulforhodamine B assay; settings: SNB-75, 48 h; for CC50: read-out: LC50 (the source's name)
RXF 393 = test: Cytotoxicity against Homo sapiens (human) RXF393 cells after 48 hr by sulforhodamine B assay; settings: RXF 393, 48 h

Nc1nc(Cl)c2ncn(Cc3ccccc3CCl)c2n1
LC50 (concentration killing 50% of cells) (MCF7): 87.1 µM
TGI (MCF7): 24.6 µM
LC50 (concentration killing 50% of cells) (OVCAR-8): > 100 µM
TGI (OVCAR-8): 19.5 µM
TGI (HOP-62): 61.7 µM
CC50 (HOP-62): > 100 µM
growth at 100 µM (SF-268 [1]): 67%
TGI (EKVX): 30.9 µM
CC50 (EKVX): 60.3 µM
TGI (RPMI-8226): > 100 µM
CC50 (RPMI-8226): > 100 µM
TGI (K562): > 100 µM
CC50 (K562): > 100 µM
growth at 100 µM (NCI-H460): 0%
LC50 (MDA-MB-231): 63.1 µM
TGI (MDA-MB-231): 9.55 µM
LC50 (SK-MEL-5): 75.9 µM
TGI (SK-MEL-5): 26.3 µM
TGI (SF-268 [2]): 14.5 µM
CC50 (SF-268 [2]): 97.2 µM
LC50 (LOX IMVI): > 100 µM
TGI (LOX IMVI): 21.9 µM
LC50 (SK-OV-3): > 100 µM
TGI (SK-OV-3): 52.5 µM
LC50 (50% lethal concentration) (BT-549): 57.5 µM
TGI (BT-549): 22.9 µM
LC50 (concentration causing 50% net cell kill) (UACC-62): 8.51 µM
TGI (UACC-62): 4.37 µM
TGI (COLO 205): > 100 µM
CC50 (COLO 205): > 100 µM
LC50 (SNB-19): > 100 µM
TGI (SNB-19): 27.5 µM
TGI (NCI-H23): 8.91 µM
CC50 (NCI-H23): 78.9 µM
TGI (KM12): 38.9 µM
CC50 (KM12): 97.2 µM
TGI (HT-29): 19.1 µM
CC50 (HT-29): > 100 µM
LC50 (concentration killing 50% of cells) (OVCAR-4): 50.1 µM
TGI (OVCAR-4): 6.46 µM
LC50 (concentration causing 50% cell kill) (PC-3): > 100 µM
TGI (PC-3): 67.6 µM
TGI (NCI-H522): 9.33 µM
CC50 (NCI-H522): > 100 µM
LC50 (50% lethal concentration) (SN12C): 19.5 µM
TGI (SN12C): 5.62 µM
LC50 (concentration killing 50% of cells) (SF-539): 81.3 µM
TGI (SF-539): 38 µM
TGI (SNB-75): 23.5 µM
CC50 (SNB-75): 64.6 µM

ClCc1cccc(Cn2cnc3c(Cl)ncnc32)c1
GI50 (MCF7): 7.76 µM
LC50 (concentration killing 50% of cells) (MCF7): > 100 µM
TGI (MCF7): 77.6 µM
GI50 (OVCAR-8): 21.9 µM
LC50 (concentration killing 50% of cells) (OVCAR-8): 79.4 µM
TGI (OVCAR-8): 41.7 µM
GI50 (HOP-62): 2.63 µM
TGI (HOP-62): 5.12 µM
CC50 (HOP-62): 10.2 µM
GI50 (EKVX): 18.6 µM
TGI (EKVX): 33.9 µM
CC50 (EKVX): 63.1 µM
GI50 (RPMI-8226): 3.8 µM
TGI (RPMI-8226): 16.2 µM
CC50 (RPMI-8226): 87.1 µM
GI50 (K562): 3.54 µM
TGI (K562): 15.1 µM
CC50 (K562): 75.9 µM
GI50 (RXF 393): 2.29 µM
TGI (RXF 393): 24 µM
CC50 (RXF 393; read-out: LC50 (the source's name)): 70.8 µM
GI50 (MDA-MB-231): 1.99 µM
LC50 (MDA-MB-231): 8.12 µM
TGI (MDA-MB-231): 4.07 µM
GI50 (SK-MEL-5): 2.29 µM
LC50 (SK-MEL-5): 24.6 µM
TGI (SK-MEL-5): 6.31 µM
GI50 (SF-268 [2]): 3.54 µM
TGI (SF-268 [2]): 15.5 µM
CC50 (SF-268 [2]): > 100 µM
GI50 (LOX IMVI): 1.95 µM
LC50 (LOX IMVI): 27.5 µM
TGI (LOX IMVI): 5.01 µM
GI50 (SK-OV-3): 3.31 µM
LC50 (SK-OV-3): 33.1 µM
TGI (SK-OV-3): 10.5 µM
GI50 (BT-549): 15.1 µM
LC50 (50% lethal concentration) (BT-549): 60.3 µM
TGI (BT-549): 30.2 µM
GI50 (UACC-62): 1.82 µM
LC50 (concentration causing 50% net cell kill) (UACC-62): 6.31 µM
TGI (UACC-62): 3.38 µM
GI50 (COLO 205): 3.09 µM
TGI (COLO 205): 10.5 µM
CC50 (COLO 205): 74.1 µM
GI50 (SNB-19): 2.63 µM
LC50 (SNB-19): > 100 µM
TGI (SNB-19): 12.6 µM
GI50 (NCI-H23): 1.9 µM
TGI (NCI-H23): 4.07 µM
CC50 (NCI-H23): 8.71 µM
GI50 (KM12): 3.46 µM
TGI (KM12): 13.5 µM
CC50 (KM12): 3.98 µM
GI50 (HT-29): 3.23 µM
TGI (HT-29): > 100 µM
CC50 (HT-29): > 100 µM
GI50 (OVCAR-4): 2.34 µM
LC50 (concentration killing 50% of cells) (OVCAR-4): 26.3 µM
TGI (OVCAR-4): 5.75 µM
GI50 (PC-3): 4.16 µM
LC50 (concentration causing 50% cell kill) (PC-3): 67.6 µM
TGI (PC-3): 18.2 µM
GI50 (NCI-H522): 18.6 µM
TGI (NCI-H522): 66.1 µM
CC50 (NCI-H522): > 100 µM
GI50 (SN12C): 2.34 µM
LC50 (50% lethal concentration) (SN12C): 14.5 µM
TGI (SN12C): 5.12 µM
GI50 (SF-539): 19.9 µM
LC50 (concentration killing 50% of cells) (SF-539): 61.7 µM
TGI (SF-539): 35.5 µM
GI50 (SNB-75): 2.08 µM
TGI (SNB-75): 4.57 µM
CC50 (SNB-75): 10 µM
